According to US20260206761A1, “HETEROARYL-TRIAZOLE COMPOUNDS AS PESTICIDES” (Bayer Aktiengesellschaft, priority 2019, published 2026):

What was measured:
Format in all cases: in vivo
[1] = test system: Rhipicephalus microplus larvae (strain Parkhurst, resistant against synthetic pyrethroids); experiment: Rhipicephalus (Boophilus) microplus in-vitro contact test, larval cattle tick; conditions: after 48 hours, read-out: activity (efficacy: larvae dead or moribund); for pest or weed control at 100 g/ha: application rate 1 pg/cm^2 (=100 g/ha); for pest or weed control at 500 g/ha: application rate 5 pg/cm^2 (=500 g/ha)
Outline: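 Acetone solutions coated onto inner walls of glass tubes by rotation (900 ppm giving 5 μg/cm^2); after evaporation, 20-50 larvae added per tube and held at 27° C., 85% relative humidity. Efficacy read after 48 h from negative geotactic behaviour; 100% = all larvae dead or moribund.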

[2] = test system: adult engorged female ticks (Rhipicephalus microplus); experiment: Rhipicephalus (Boophilus) microplus injection test; conditions: 168 h, egg deposition after 7 days, read-out: activity (efficacy: infertile eggs); for pest or weed control at 4 pg: application rate 4 pg/animal; for pest or weed control at 0.02 mg: application rate 20 μg/animal
Outline: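 Efficacy is scored from egg fertility, with 100% meaning every egg infertile and 0% every egg fertile. Five engorged females per test received 1 μL DMSO solution abdominally. Eggs of unclear fertility were kept until hatching, about 42 days.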

[3] = test system: adult cat fleas (Ctenocephalides felis); experiment: Ctenocephalides felis in-vitro contact test, adult cat flea; conditions: application rate 5 μg/cm^2 (=500 g/ha), after 48 hours, read-out: activity (efficacy: fleas dead or moribund)
Outline: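 Acetone solutions of compound coated onto inner walls of glass tubes (900 ppm giving […]); after drying, 5-10 adult Ctenocephalides felis added and held at room temperature. At 48 h, fleas placed on a 45-50° C heating plate; those unable to climb away scored dead or moribund, expressed as % efficacy.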

[4] = test system: adult unfed cat fleas (Ctenocephalides felis); experiment: Ctenocephalides felis oral test; conditions: 48 h, read-out: activity (mortality)
Outline: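 About 20 adult unfed fleas fed through parafilm on cattle blood containing compound (DMSO stock diluted in blood), blood held at 37 °C and fleas at room temperature. Mortality (%) scored after 2 days.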

[5] = test system: larvae of the banded cucumber beetle (Diabrotica balteata); experiment: Diabrotica balteata spray test; conditions: 168 h, after 7 days, read-out: activity (efficacy: seedlings grown); for pest or weed control at 100 g/ha: application rate 100 g/ha (=32 pg/well); for pest or weed control at 500 g/ha: application rate 500 g/ha (=160 pg/well)
Outline: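 Wheat seedlings, germinated 1 day on agar (5 seeds/well), sprayed with active compound in acetone/DMF diluted in water containing 1000 ppm emulsifier, then infested with 10-20 D. balteata larvae. Efficacy (%) scored after 7 days: 100% = seedlings grown as untreated uninfested control, 0% = no seedlings grown.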

[6] = test system: fall armyworm larvae (Spodoptera frugiperda); experiment: Spodoptera frugiperda spray test; conditions: 168 h, read-out: activity (mortality)
Outline: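 Compound in acetone/DMF, diluted in water with 1000 ppm alkylarylpolyglycol ether emulsifier, sprayed on maize leaf sections. Dried leaves infested with fall armyworm larvae; % mortality after 7 days (100% = all killed, 0% = none).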

[7] = test system: Aedes aegypti strain MONHEIM; experiment: Aedes aegypti test (AEDSAE surface treatment & contact assay); conditions: 24 hours after contact, read-out: efficacy (mortality); for mortality at 4 mg/m2: surface concentration 4 mg/m^2, exposure 30 minutes; for mortality at 20 mg/m2: surface concentration 20 mg/m^2, exposure 30 minutes
Outline: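 Compound in acetone (2 mg/ml) with 2000 ppm RME pipetted onto glazed tile and dried; adult Aedes aegypti MONHEIM exposed 30 min. Percent mortality scored 24 h after contact.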

[8] = test system: Anopheles funestus strain FUMOZ-R; experiment: Anopheles funestus test (ANPHFU surface treatment & contact assay); conditions: 24 hours after contact, read-out: efficacy (mortality); for mortality at 20 mg/m2: surface concentration 20 mg/m^2, exposure 30 minutes; for mortality at 4 mg/m2: surface concentration 4 mg/m^2, exposure 30 minutes
Procedure: Anopheles funestus Test (ANPHFU Surface Treatment & Contact Assay)
(§1) Solvent: Aceton+2000 ppm rapeseed oil methyl ester (RME)
(§2) In order to produce a sufficient, active ingredient containing solution it is necessary to solve the test compound in the solvent-mix (acetone at 2 mg/ml/RME 2000 ppm). This solution is pipetted onto a glazed tile and after evaporation of the acetone, adult mosquitoes of the species Anopheles funestus strain FUMOZ-R (Hunt et al., Med. Vet. Entomol. 2005 September; 19(3): 271-275) are placed onto the dried surface. The exposure time is 30 minutes. Mortality in percent (%) is determined 24 hours after contact of the insects to the treated surface. 100% mortality means that all tested insects are dead, whereas 0% means that no insect died.

[9] = test system: adult brown dog ticks (Rhipicephalus sanguineus); experiment: Rhipicephalus sanguineus in-vitro contact test, adult brown dog ticks; conditions: after 48 hours, read-out: activity (efficacy: ticks dead or moribund); for pest or weed control at 100 g/ha: application rate 1 pg/cm^2 (=100 g/ha); for pest or weed control at 5 µg/cm2, 500 g/ha: application rate 5 μg/cm^2 (=500 g/ha)
Outline: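 Efficacy (%) reflects the fraction of adult ticks dead or moribund after 48 h of contact with a dried acetone film on tube walls at 5 μg/cm^2 (from 900 ppm). Moribund status was assessed by inability to climb away from heat at 45-50° C.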

[10] = test system: Culex quinquefasciatus strain P00; experiment: Culex quinquefasciatus test (CULXFA surface treatment & contact assay); conditions: 24 hours after contact, read-out: efficacy (mortality); for mortality at 4 mg/m2: surface concentration 4 mg/m^2, exposure 30 minutes
Procedure: Culex quinquefasciatus Test (CULXFA Surface Treatment & Contact Assay)
as §1
as §2, with “2 000” for “2000”, “Culex quinquefasciatus” for “Anopheles funestus”, “P00” for “FUMOZ-R (Hunt et al., Med. Vet. Entomol. 2005 September; 19(3): 271-275)”

[11] = test system: Musca domestica strain WHO-N; experiment: Musca domestica test (MUSCDO surface treatment & contact assay); conditions: surface concentration 20 mg/m^2, exposure 30 minutes, 24 hours after contact, read-out: efficacy (mortality)
Procedure: Musca domestica Test (MUSCDO Surface Treatment & Contact Assay)
as §1
as §2, with “flies” for “mosquitoes”, “Musca domestica” for “Anopheles funestus”, “WHO—N” for “FUMOZ-R (Hunt et al., Med. Vet. Entomol. 2005 September; 19(3): 271-275)”

[12] = test system: green peach aphid (Myzus persicae); experiment: Myzus persicae spray test; conditions: 120 h, after 5 days; for mortality at 100 g/ha: application rate 100 g/ha
Outline: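 Chinese cabbage leaf disks carrying all instars of M. persicae sprayed with compound in acetone/DMF, diluted in water with 1000 ppm alkylarylpolyglycol ether emulsifier. Percent mortality scored after 5 days (100% = all aphids killed).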

[13] = test system: brown planthopper (Nilaparvata lugens); experiment: Nilaparvata lugens spray test; conditions: 96 h, after 4 days; for mortality at 500 g/ha: application rate 500 g/ha
Procedure: Nilaparvata lugens—Spray Test
Solvent: 78.0 parts by weight of acetone • • 1.5 parts by weight of dimethylformamide
Emulsifier: alkylarylpolyglycol ether
To produce a suitable preparation of active compound, 1 part by weight of active compound is mixed with the stated amount of solvents and is diluted with water, containing an emulsifier concentration of 1000 ppm, to the desired concentration. Further test concentrations are prepared by dilution with emulsifier containing water.
Rice plants (Oryza sativa) are sprayed with a preparation of the active ingredient of the desired concentration and the plants are infested with the brown planthopper (Nilaparvata lugens).
After 4 days mortality in % is determined. 100% means all planthoppers have been killed and 0% means none of the planthoppers have been killed.

[14] = test system: larvae of the southern green stink bug (Nezara viridula); experiment: Nezara viridula spray test; conditions: 96 h, after 4 days; for mortality at 500 g/ha: application rate 500 g/ha; for mortality at 100 g/ha: application rate 100 g/ha
Outline: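 Compound in acetone/dimethylformamide, diluted in water with 1000 ppm alkylarylpolyglycol ether emulsifier, sprayed onto barley plants carrying stink bug larvae. Mortality (%) scored after 4 days, 100% meaning all insects killed.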

[15] = test system: green peach aphid (Myzus persicae); experiment: Myzus persicae oral test; conditions: 120 h, application rate 4 ppm, after 5 days
Outline: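 Compound was dissolved at 1 part by weight in 100 parts acetone, then diluted with water to test concentration and combined with IPL41 insect medium (33%+15% sugar). A mixed aphid population fed on this through a parafilm seal, and mortality (%) was scored after 5 days.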

Structure (SMILES)	pest or weed control at 100 g/ha [1] [%]	pest or weed control at 500 g/ha [1] [%]	pest or weed control at 4 pg [2] [%]	pest or weed control at 0.02 mg [2] [%]	mortality at 100 ppm [4] [%]	pest or weed control at 100 g/ha [5] [%]	mortality at 100 g/ha [6] [%]	mortality at 4 mg/m2 [7] [%]	mortality at 20 mg/m2 [7] [%]	mortality at 100 g/ha [12] [%]	mortality at 500 g/ha [13] [%]	mortality at 500 g/ha [14] [%]	further results
Cc1nc([C@H](C)NC(=O)c2csc(Cl)c2)n(-c2ccc(C#N)cn2)n1 [II-8]	100	100	80	100	100	100	83	80 to 100	80 to 100				pest or weed control at 5 µg/cm2 [3]: 100%; pest or weed control at 500 g/ha [5]: 100%; mortality at 500 g/ha [6]: 100%; mortality at 20 mg/m2 [8]: 80 to 100%
C[C@H](NC(=O)c1cc(C(F)(F)F)cc(S(=O)(=O)C2CC2)c1)c1ncnn1-c1ccc(Cl)cn1 [II-46]	100	100	100	100	90	100	100	80 to 100	80 to 100				pest or weed control at 100 g/ha [9]: 100%; pest or weed control at 5 µg/cm2, 500 g/ha [9]: 80%; mortality at 4 mg/m2 [10]: 80 to 100%; mortality at 20 mg/m2 [11]: 80 to 100%
C[C@H](NC(=O)c1cc(C(F)(F)F)cc(S(C)(=O)=O)c1)c1nc(Br)nn1-c1ncccn1 [I-95, N-[(1S)-1-(5-bromo-2-pyrimidin-2-yl-1,2,4-triazol-3-yl)ethyl]-3-methylsulfonyl-5-(trifluoromethyl)benzamide]						100	100			90	100		
COc1nc([C@H](C)NC(=O)c2cc(OC(F)(F)F)cc(S(C)(=O)=O)c2)n(-c2ncc(Cl)cn2)n1 [I-77]						100	100			100	100	100	
C[C@H](NC(=O)c1cc(OC(F)(F)F)cc(S(=O)(=O)C2CC2)c1)c1nc(C2CC2)nn1-c1ncc(Cl)cn1 [I-93]						100	100			100	90	100	
C[C@H](NC(=O)c1cncc(C2CC2)c1)c1ncnn1-c1ccc(C#N)cn1 [II-1]								80 to 100					mortality at 500 g/ha [6]: 100%; mortality at 4 mg/m2 [8]: 80 to 100%
C[C@H](NC(=O)c1csc(Cl)c1)c1ncnn1-c1ncccn1 [II-30]	100	100	100	100	100			80 to 100	80 to 100				pest or weed control at 5 µg/cm2 [3]: 90%; pest or weed control at 100 g/ha [9]: 100%; pest or weed control at 5 µg/cm2, 500 g/ha [9]: 100%; pest or weed control at 500 g/ha [5]: 100%; mortality at 500 g/ha ([12]; application rate 500 g/ha): 90%; mortality at 4 mg/m2 [8]: 80 to 100%
C[C@H](NC(=O)c1cc(C(F)(F)F)cc(S(C)(=O)=O)c1)c1nc(Cl)nn1-c1ncccn1 [I-96, N-[(1S)-1-(5-chloro-2-pyrimidin-2-yl-1,2,4-triazol-3-yl)ethyl]-3-methylsulfonyl-5-(trifluoromethyl)benzamide]						100	100				100	100	
COc1nc([C@H](C)NC(=O)c2cc(C(F)F)cc(S(C)(=O)=O)c2)n(-c2ncc(Cl)cn2)n1 [I-88]						100					100	100	
CC(NC(=O)c1cc(Cl)cc(S(C)(=O)=O)c1)c1nc(Cl)nn1-c1ncccn1 (racemic) [I-29, 3-chloro-N-[1-(5-chloro-2-pyrimidin-2-yl-1,2,4-triazol-3-yl)ethyl]-5-methylsulfonyl-benzamide]						100		80 to 100	80 to 100	90			mortality at 4 ppm [15]: 100%; mortality at 100 g/ha [14]: 90%; mortality at 4 mg/m2 [8]: 80 to 100%; mortality at 20 mg/m2 [8]: 80 to 100%
C[C@H](NC(=O)c1cc(Cl)cc(S(=O)(=O)C(F)F)c1)c1ncnn1-c1ccc(Cl)cn1 [II-37]	100	100	100	100	100	100	100	80 to 100	80 to 100				pest or weed control at 500 g/ha [5]: 100%; mortality at 500 g/ha [6]: 100%; mortality at 4 mg/m2 [10]: 80 to 100%; mortality at 20 mg/m2 ([10]; surface concentration 20 mg/m^2, exposure 30 minutes): 80 to 100%; mortality at 20 mg/m2 [11]: 80 to 100%
CC(NC(=O)c1cc(C(F)(F)F)cc(S(C)(=O)=O)c1)c1nc(Br)nn1-c1ncccn1 (stereo not drawn) [I-38]						100				90			mortality at 4 ppm [15]: 100%; mortality at 100 g/ha [14]: 100%; mortality at 100 g/ha ([13]; application rate 100 g/ha): 100%
